Publication PMC11995724, “Antibiotic target discovery by integrated phenotypic and activity-based profiling of electrophilic fragments” (Cell chemical biology, 2025)
Counter-ions that a name gives are not always drawn.

Assay: in vitro
Details: human, hek293t cells

Compared with `N#Cc1cccc(C(NC(=O)CCl)C(F)(F)F)c1` (centres unmarked) [7-N04, 2-chloro-N-[1-(3-cyanophenyl)-2,2,2-trifluoroethyl]acetamide], `O=C(CCl)NCc1ccccc1SC(F)(F)F` [7-N12, 2-chloro-N-({2-[(trifluoromethyl)sulfanyl]phenyl}methyl)acetamide] is higher in viability at 48 h, 25 µM: 0.24% for the first, 0.794% for the second.

First: CC(Cl)C(=O)N1CCN(Cc2nnnn2-c2ccccc2)CC1 (centres unmarked) [7-N05, 2-chloro-1-{4-[(1-phenyl-1H-1,2,3,4-tetrazol-5-yl)methyl]piperazin-1-yl}propan-1-one]
Second: CC(Cl)C(=O)N1CCN(C(C)C)c2ccccc2C1 (centres unmarked) [7-O07, 2-chloro-1-[1-(propan-2-yl)-2,3,4,5-tetrahydro-1H-1,4-benzodiazepin-4-yl]propan-1-one]
The viability at 48 h, 25 µM of the first is higher: 97.8% for the first, 81.6% for the second.

First: COc1ccc(Cl)cc1C(O)CNC(=O)CCl (centres unmarked) [7-N06, 2-chloro-N-[2-(5-chloro-2-methoxyphenyl)-2-hydroxyethyl]acetamide]
Second: Cc1ccc(F)c(S(=O)(=O)NCCNC(=O)CCl)c1 [7-P12, 2-chloro-N-[2-(2-fluoro-5-methylbenzenesulfonamido)ethyl]acetamide]
The viability at 48 h, 25 µM of the first is lower: 0.942% for the first, 1.05% for the second.

Going from `CC(Cl)C(=O)N1CCCN(C(=O)c2cc(Cl)cn2C)CC1` (centres unmarked) [7-N07, 2-chloro-1-[4-(4-chloro-1-methyl-1H-pyrrole-2-carbonyl)-1,4-diazepan-1-yl]propan-1-one] to `Cc1noc(C)c1S(=O)(=O)N1CCCN(C(=O)C(C)Cl)CC1` (centres unmarked) [7-O11, 2-chloro-1-{4-[(3,5-dimethyl-1,2-oxazol-4-yl)sulfonyl]-1,4-diazepan-1-yl}propan-1-one], the viability at 48 h, 25 µM falls from 94.5% to 89.5%.

Going from `O=C(CCl)NCCCC(=O)N1CCCC1` [7-N08, 2-chloro-N-[4-oxo-4-(pyrrolidin-1-yl)butyl]acetamide] to `O=C(CCl)NCC1CCCN(C(=O)C(F)(F)F)C1` (centres unmarked) [7-N18, 2-chloro-N-{[1-(2,2,2-trifluoroacetyl)piperidin-3-yl]methyl}acetamide], the viability at 48 h, 25 µM falls from 93.6% to 0.898%.

Compared with `O=C(CCl)NC(Cc1ccccc1)c1ccccc1F` (centres unmarked) [7-N10, 2-chloro-N-[1-(2-fluorophenyl)-2-phenylethyl]acetamide], `O=C(CCl)NC(Cc1cccc(O)c1)c1ccccc1` (centres unmarked) [7-N20, 2-chloro-N-[2-(3-hydroxyphenyl)-1-phenylethyl]acetamide] is higher in viability at 48 h, 25 µM: 0.701% for the first, 0.777% for the second.

Compared with `CC(Cl)C(=O)NCC(=O)Nc1ccc2c[nH]nc2c1` (centres unmarked) [7-N11, 2-chloro-N-{[(2H-indazol-6-yl)carbamoyl]methyl}propanamide], `CC(Cl)C(=O)NCCc1nc2cc(F)ccc2s1` (centres unmarked) [7-P11, 2-chloro-N-[2-(5-fluoro-1,3-benzothiazol-2-yl)ethyl]propanamide] is lower in viability at 48 h, 25 µM: 97% for the first, 89.1% for the second.

Going from `Cc1ccc(C(CNC(=O)C(C)Cl)N2CCOCC2)s1` (centres unmarked) [7-N13, 2-chloro-N-[2-(5-methylthiophen-2-yl)-2-(morpholin-4-yl)ethyl]propanamide] to `CC(Cl)C(=O)NCCc1csc(N2CCCC2)n1` (centres unmarked) [7-O08, 2-chloro-N-{2-[2-(pyrrolidin-1-yl)-1,3-thiazol-4-yl]ethyl}propanamide], the viability at 48 h, 25 µM falls from 108% to 95.9%.

Going from `O=C(CCl)NC1c2ccccc2CCC1n1ccnc1` (centres unmarked) [7-N14, 2-chloro-N-[2-(1H-imidazol-1-yl)-1,2,3,4-tetrahydronaphthalen-1-yl]acetamide hydrochloride] to `O=C(CCl)NC1CCN(C(=O)c2ccccc2)C1` (centres unmarked) [7-P06, N-(1-benzoylpyrrolidin-3-yl)-2-chloroacetamide], the viability at 48 h, 25 µM falls from 95.8% to 0.866%.

Going from `CNC(=O)c1ccc(C2CCCCN2C(=O)C(C)Cl)n1C` (centres unmarked) [7-N15, 5-[1-(2-chloropropanoyl)piperidin-2-yl]-N,1-dimethyl-1H-pyrrole-2-carboxamide] to `Cc1nc([C@H]2CCCN2C(=O)C(C)Cl)cs1` (stereo partly drawn) [7-O04, 2-chloro-1-[(2R)-2-(2-methyl-1,3-thiazol-4-yl)pyrrolidin-1-yl]propan-1-one], the viability at 48 h, 25 µM falls from 97.6% to 95.2%.

Compared with `CC(NC(=O)CCl)C(=O)N1c2ccccc2CC1C` (centres unmarked) [7-N16, 2-chloro-N-[1-(2-methyl-2,3-dihydro-1H-indol-1-yl)-1-oxopropan-2-yl]acetamide], `CC(Cl)C(=O)NC1Cc2ccccc2N(C(=O)C(F)(F)F)C1` (centres unmarked) [7-N19, 2-chloro-N-[1-(2,2,2-trifluoroacetyl)-1,2,3,4-tetrahydroquinolin-3-yl]propanamide] is higher in viability at 48 h, 25 µM: 0.726% for the first, 87.1% for the second.

First: CCc1nc2c(s1)C(N(C)C(=O)C(C)Cl)CCC2 (centres unmarked) [7-N17, 2-chloro-N-(2-ethyl-4,5,6,7-tetrahydro-1,3-benzothiazol-7-yl)-N-methylpropanamide]
Second: COc1ccc(Cl)c2c1CCCC2N(C)C(=O)C(C)Cl (centres unmarked) [7-P09, 2-chloro-N-(8-chloro-5-methoxy-1,2,3,4-tetrahydronaphthalen-1-yl)-N-methylpropanamide]
The viability at 48 h, 25 µM of the first is lower: 84.1% for the first, 86.7% for the second.

First: CC(Cl)C(=O)NC(C)c1nnnn1C1CC1 (centres unmarked) [7-N21, 2-chloro-N-[1-(1-cyclopropyl-1H-1,2,3,4-tetrazol-5-yl)ethyl]propanamide]
Second: CC(Cl)C(=O)NCC1CN(c2nncs2)CCO1 (centres unmarked) [7-O03, 2-chloro-N-{[4-(1,3,4-thiadiazol-2-yl)morpholin-2-yl]methyl}propanamide]
The viability at 48 h, 25 µM of the first is lower: 75.9% for the first, 106% for the second.

Going from `CC(Cl)C(=O)N1Cc2cccn2[C@@H](C)C1` (stereo partly drawn) [7-N22, 2-chloro-1-[(4S)-4-methyl-1H,2H,3H,4H-pyrrolo[1,2-a]pyrazin-2-yl]propan-1-one] to `CC(Cl)C(=O)N1CCC(c2cc3ccccc3[nH]2)C1` (centres unmarked) [7-O12, 2-chloro-1-[3-(1H-indol-2-yl)pyrrolidin-1-yl]propan-1-one], the viability at 48 h, 25 µM falls from 86.7% to 82.5%.

Going from `CC(Cl)C(=O)NC1CCN(S(=O)(=O)c2cnn(C)c2)CC1` (centres unmarked) [7-O05, 2-chloro-N-{1-[(1-methyl-1H-pyrazol-4-yl)sulfonyl]piperidin-4-yl}propanamide] to `CC(Cl)C(=O)N1C2CCC1CC(c1ccnn1C)C2` (centres unmarked) [7-O15, 2-chloro-1-[3-(1-methyl-1H-pyrazol-5-yl)-8-azabicyclo[3.2.1]octan-8-yl]propan-1-one], the viability at 48 h, 25 µM falls from 113% to 88.6%.

First: CC(=O)NC1(c2nc(C)cs2)CCN(C(=O)C(C)Cl)C1 (centres unmarked) [7-O06, N-[1-(2-chloropropanoyl)-3-(4-methyl-1,3-thiazol-2-yl)pyrrolidin-3-yl]acetamide]
Second: Cc1nc(C)n(C2CCCN(C(=O)C(C)Cl)C2)n1 (centres unmarked) [7-P13, 2-chloro-1-[3-(3,5-dimethyl-1H-1,2,4-triazol-1-yl)piperidin-1-yl]propan-1-one]
The viability at 48 h, 25 µM of the first is higher: 114% for the first, 92.3% for the second.

First: CC(Cl)C(=O)N[C@H](CC(N)=O)c1cccc(Cl)c1 (stereo partly drawn) [7-O09, (3R)-3-(3-chlorophenyl)-3-(2-chloropropanamido)propanamide]
Second: CC(Cl)C(=O)NC(C)C(=O)Nc1ccc(-n2cncn2)cc1 (centres unmarked) [7-P07, 2-chloro-N-(1-{[4-(1H-1,2,4-triazol-1-yl)phenyl]carbamoyl}ethyl)propanamide]
The viability at 48 h, 25 µM of the first is higher: 102% for the first, 98.6% for the second.

Compared with `Cc1ccc(CNC(=O)C(C)Cl)c2ccccc12` (centres unmarked) [7-O10, 2-chloro-N-[(4-methylnaphthalen-1-yl)methyl]propanamide], `CC(Cl)C(=O)NCc1nn(-c2ccccc2)c2c1CCC2` (centres unmarked) [7-P05, 2-chloro-N-({1-phenyl-1H,4H,5H,6H-cyclopenta[c]pyrazol-3-yl}methyl)propanamide] is higher in viability at 48 h, 25 µM: 88.6% for the first, 116% for the second.

Compared with `Cc1cc(C2(NC(=O)C(C)Cl)CCOCC2)on1` (centres unmarked) [7-O13, 2-chloro-N-[4-(3-methyl-1,2-oxazol-5-yl)oxan-4-yl]propanamide], `Cc1cc(C)n(CCCNC(=O)C(C)Cl)n1` (centres unmarked) [7-O19, 2-chloro-N-[3-(3,5-dimethyl-1H-pyrazol-1-yl)propyl]propanamide] is lower in viability at 48 h, 25 µM: 95.5% for the first, 78.1% for the second.

First: Cc1noc(C)c1COC1CCN(C(=O)C(C)Cl)C1 (centres unmarked) [7-O14, 2-chloro-1-{3-[(3,5-dimethyl-1,2-oxazol-4-yl)methoxy]pyrrolidin-1-yl}propan-1-one]
Second: CCC(C)C1CN(Cc2ccc(C)nc2)CCN1C(=O)C(C)Cl (centres unmarked) [7-O16, 1-[2-(butan-2-yl)-4-[(6-methylpyridin-3-yl)methyl]piperazin-1-yl]-2-chloropropan-1-one]
The viability at 48 h, 25 µM of the first is higher: 90.9% for the first, 74.9% for the second.

Compared with `CC(Cl)C(=O)NCc1nc2cccnc2n1C` (centres unmarked) [7-O17, 2-chloro-N-({3-methyl-3H-imidazo[4,5-b]pyridin-2-yl}methyl)propanamide], `Cc1nc2ccccc2n(CCCNC(=O)C(C)Cl)c1=O` (centres unmarked) [7-O21, 2-chloro-N-[3-(3-methyl-2-oxo-1,2-dihydroquinoxalin-1-yl)propyl]propanamide] is lower in viability at 48 h, 25 µM: 103% for the first, 59.4% for the second.

Compared with `CC(Cl)C(=O)NCc1cccc(N2C(=O)NC3(CCCC3)C2=O)c1` (centres unmarked) [7-O18, 2-chloro-N-[(3-{2,4-dioxo-1,3-diazaspiro[4.4]nonan-3-yl}phenyl)methyl]propanamide], `CC(Cl)C(=O)NCC1CC(=O)N(c2ccccc2)C1` (centres unmarked) [7-O20, 2-chloro-N-[(5-oxo-1-phenylpyrrolidin-3-yl)methyl]propanamide] is lower in viability at 48 h, 25 µM: 103% for the first, 85.1% for the second.

Going from `CC(Cl)C(=O)Nc1ccc(Cc2nnc3ncccn23)cc1` (centres unmarked) [7-O22, 2-chloro-N-[4-({[1,2,4]triazolo[4,3-a]pyrimidin-3-yl}methyl)phenyl]propanamide] to `O=C(CCl)NC1C=C(c2ccc(Cl)cc2)CCC1` (centres unmarked) [7-P08, 2-chloro-N-[3-(4-chlorophenyl)cyclohex-2-en-1-yl]acetamide], the viability at 48 h, 25 µM falls from 74.1% to 0.393%.

First: Cc1ccsc1CN(C(=O)CCl)C(C)C [7-P03, 2-chloro-N-[(3-methylthiophen-2-yl)methyl]-N-(propan-2-yl)acetamide]
Second: CCn1nc(C)c(CNC(=O)CCl)c1C [7-P10, 2-chloro-N-[(1-ethyl-3,5-dimethyl-1H-pyrazol-4-yl)methyl]acetamide]
The viability at 48 h, 25 µM of the first is lower: 0.159% for the first, 30% for the second.

Going from `O=C(CCl)NCCC1CCCC1(F)F` (centres unmarked) [7-P04, 2-chloro-N-[2-(2,2-difluorocyclopentyl)ethyl]acetamide] to `NC(=O)c1ccccc1N1CCC(NC(=O)CCl)CC1` [7-P14, 2-[4-(2-chloroacetamido)piperidin-1-yl]benzamide hydrochloride], the viability at 48 h, 25 µM falls from 1.08% to 0.53%.
